Laboratory results as given in patent US11219625B2, “Inhibitors of N-linked glycosylation and methods using same” (YALE UNIVERSITY, priority 2015, dated 2022).

Assays:
[1] = tested on: N-linked glycosylation; experiment: D54-ERLucT cell based luciferase assay for inhibition of N-linked glycosylation; conditions: D54-ERLucT cells, luciferase activation
Text: (§1) The HTS approach using the bioluminescent N-linked glycosylation reporter (CCR 2011) in D54-ERLucT and D54-LucT cells has been previously described (Bennett, et al., Transl Oncol 2013, 6, 382-391). Briefly, the primary cell-based screen detects site occupancy of NLG sequons using a modified luciferase protein translated into the ER. […] The methodology for the primary (D54-ERlucT), secondary (D54-LucT), and tertiary (luciferase inhibition) screens as well and toxicity assays with CelltitreGlo are deposited in Pubchem (AID 588693).
The primary screen was developed in the D54 glioma cell line using a modified P. pyralis luciferase gene (ER-LucT) that is ER translated and glycosylated at three N-linked glycosylation consensus sequences. Glycosylation of the reporter inactivates luciferase enzymatic activity providing a robust methodology to detect inhibition of this process. D54 cells expressing a non-ER translated luciferase (LucT) insensitive to inhibition of N-linked glycoysation were used as a secondary screen for false positives. The primary screen was performed in duplicate and values were normalized to the average of positive control wells (Tunicamycin) minus averaged neutral vehicle treated wells per run. Compounds with replicate activity greater than three standard deviations above the mean average of control wells were selected for further study. A subset of 1,845 compounds met this criterion, and were advanced to simultaneous retesting in both the primary screen and a secondary (false positive) cell-based screen. […] Compounds were further triaged from consideration by consulting the Pubchem bioassay database and deprioritizing compounds showing a promiscuity rate higher than 5% across assays or by removing PAINS scaffolds (Baell, et al., J Med Chem 2010, 53, 2719-2740). Remaining compounds were assessed by medicinal chemistry review to score synthetic tractability and known issues with instability, poor solubility, or toxicity. This analysis yielded 39 compounds that were tested in a cell-free assay to detect luciferase inhibitors (Auld, et al., Proc Natl Acad Sci USA 2010, 107, 4878-4883) and by western blot analysis to detect gel mobility changes of the luciferase reporter, consistent with inhibition of N-linked glycosylation. This approach identified one aminobenzamidosulfonamide compound that blocked N-linked glycosylation.
(§2) To better understand the connection between structure and activity, analogs were prepared and tested in the D54-ERLucT cell based assay for inhibition of N-linked glycosylation (FIG. 1B). The assay was used to estimate and compare AC40 values among analogs and to guide the design of improved compounds that inhibited N-linked glycosylation. This effort generated 36 unique compounds with modifications to the amine component of the sulfonamide functionality (red), the pyrrolidine moiety (blue) or the methylaminothiazole group (green). Generally, incorporation of larger sulfonamides (i.e., larger secondary amines appended to the sulphone) was not well tolerated, resulting in erosion of potency (7 analogs). However, steric interactions could be mitigated by the introduction of a hydrogen bond accepting oxygen in a larger cyclic amine. Thus, morpholine was determined to be an acceptable surrogate for the dimethylamine component of the sulfonamide (FIGS. 1A-1D). The pyrrolidine group (blue) was replaced with various alkyl, cycloalkyl, and amine groups (7 compounds). The aminothiazole moiety was derivatized most extensively of all three regions (green highlighted area, 22 analogs). […] Analogs with the highest potency in the luciferase assay were retested with western blot analysis to insure that measurements of luciferase activation corresponded to loss of N-linked glycosylation.

[2] = Celltiter Glo viability assay, HEK293; type: cell-based; conditions: human, HEK293 cells; HEK293, 72 h of compound exposure; read-out: Cytotoxicity Assay Mean EC50
Text: as §1, §2

[3] = tested on: HEK293 cells; experiment: Celltiter Glo viability assay, HEK293; type: cell-based; conditions: HEK293 EC50 over NLG AC40
Text: as §1, §2

[4] = Celltiter Glo viability assay, HepG2; type: cell-based; conditions: human, HepG2 cells; HEPG2, 72 h of compound exposure; read-out: Cytotoxicity Assay Mean EC50
Text: as §1, §2

[5] = tested on: HepG2 cells; experiment: Celltiter Glo viability assay, HepG2; type: cell-based; conditions: HEPG2 EC50 over NLG AC40
Text: as §1, §2

Compound | NLG Inhibition ASSAY Potency Mean AC40 [1] [µM] | NLG Inhibition max act, % [1] [%] | EC50 at 72 h [2] [µM] | Selectivity (EC50/AC40) [3] | EC50 at 72 h [4] [µM] | Selectivity (EC50/AC40) [5]
COc1ccc2nc(NC(=O)c3cc(S(=O)(=O)N(C)C)ccc3N3CCCC3)sc2c1 [Entry 9, 5-(dimethylsulfamoyl)-N-(6-methoxy-1,3-benzothiazol-2-yl)-2-pyrrolidin-1-ylbenzamide] | 13.1 | 85.7 | > 30 | >2.3 | > 30 | >2.3
CN(C)S(=O)(=O)c1ccc(N2CCCC2)c(C(=O)Nc2cccnc2)c1 [Entry 10, 5-(dimethylsulfamoyl)-N-pyridin-3-yl-2-pyrrolidin-1-ylbenzamide] | – | 48.4 | > 30 | – | > 30 | –
CN(C)S(=O)(=O)c1ccc(N2CCCC2)c(C(=O)Nc2ccncc2)c1 [Entry 11, 5-(dimethylsulfamoyl)-N-pyridin-4-yl-2-pyrrolidin-1-ylbenzamide] | – | 25 | > 30 | – | > 30 | –
CN(C)S(=O)(=O)c1ccc(N2CCCC2)c(C(=O)Nc2ccccc2)c1 [Entry 12, 5-(dimethylsulfamoyl)-N-phenyl-2-pyrrolidin-1-ylbenzamide] | 1.1 | 183.0 | > 30 | >27.8 | > 30 | >27.8
Cc1ccccc1NC(=O)c1cc(S(=O)(=O)N(C)C)ccc1N1CCCC1 [Entry 13, 5-(dimethylsulfamoyl)-N-(2-methylphenyl)-2-pyrrolidin-1-ylbenzamide] | – | 10.7 | > 30 | – | > 30 | –
Cc1ccc(NC(=O)c2cc(S(=O)(=O)N(C)C)ccc2N2CCCC2)cc1 [Entry 14, 5-(dimethylsulfamoyl)-N-(4-methylphenyl)-2-pyrrolidin-1-ylbenzamide] | 1.2 | 305.0 | > 30 | >25.0 | > 30 | >25.0
COc1ccccc1NC(=O)c1cc(S(=O)(=O)N(C)C)ccc1N1CCCC1 [Entry 15, 5-(dimethylsulfamoyl)-N-(2-methoxyphenyl)-2-pyrrolidin-1-ylbenzamide] | – | 30.1 | > 30 | – | > 30 | –
COc1ccc(NC(=O)c2cc(S(=O)(=O)N(C)C)ccc2N2CCCC2)cc1 [Entry 16, 5-(dimethylsulfamoyl)-N-(4-methoxyphenyl)-2-pyrrolidin-1-ylbenzamide] | 10.3 | 79.9 | > 30 | >2.9 | > 30 | >2.9
CN(C)S(=O)(=O)c1ccc(N2CCCC2)c(C(=O)Nc2ccccc2F)c1 [Entry 17, 5-(dimethylsulfamoyl)-N-(2-fluorophenyl)-2-pyrrolidin-1-ylbenzamide] | – | – | > 30 | – | > 30 | –
CN(C)S(=O)(=O)c1ccc(N2CCCC2)c(C(=O)Nc2cccc(F)c2)c1 [Entry 18, 5-(dimethylsulfamoyl)-N-(3-fluorophenyl)-2-pyrrolidin-1-ylbenzamide] | 2.6 | 107.7 | > 30 | >11.5 | > 30 | >11.5
CN(C)S(=O)(=O)c1ccc(N2CCCC2)c(C(=O)Nc2ccccc2Cl)c1 [Entry 19, 5-(dimethylsulfamoyl)-N-(2-chlorophenyl)-2-pyrrolidin-1-ylbenzamide] | – | 24.7 | > 30 | – | > 30 | –
CN(C)S(=O)(=O)c1ccc(N2CCCC2)c(C(=O)Nc2ccc(Br)cc2)c1 [Entry 20, 5-(dimethylsulfamoyl)-N-(4-bromophenyl)-2-pyrrolidin-1-ylbenzamide] | – | 32 | > 30 | – | > 30 | –
CN(C)S(=O)(=O)c1ccc(N2CCCC2)c(C(=O)N2CCOCC2)c1 [Entry 21, N,N-Dimethyl-3-(morpholine-4-carbonyl)-4-(pyrrolidin-1-yl)benzenesulfonamide] | – | 23.6 | > 30 | – | > 30 | –
CN(C)S(=O)(=O)c1ccc(N2CCCC2)c(C(=O)NC2CCCCC2)c1 [Entry 22, N-cyclohexyl-5-(dimethylsulfamoyl)-2-pyrrolidin-1-ylbenzamide] | – | – | > 30 | – | > 30 | –
CN(C)C(=O)c1cc(S(=O)(=O)N(C)C)ccc1N1CCCC1 [Entry 23, 5-(dimethylsulfamoyl)-N,N-dimethyl-2-pyrrolidin-1-ylbenzamide] | – | 32.1 | > 30 | – | > 30 | –
